Test results taken from patent US20060270634A1, “Acetal phosphate-derived LPA mimics, PPARgamma activators, and autotaxin inhibitors” (priority 2005, published 2006).
Like-named read-outs stand apart in the source and are kept apart here.

How the values were obtained:
LPA3 [1] = target: T1, LPA3 (Homo sapiens, UniProt Q9UBY5); assay: Ca2+ transients in RH7777 cells expressing LPA3 (agonist / inhibition of LPA response); settings: for EC50: read-out: LPA3 EC50; for IC50: read-out: LPA3 IC50
T1 sequence (Q9UBY5 1-353): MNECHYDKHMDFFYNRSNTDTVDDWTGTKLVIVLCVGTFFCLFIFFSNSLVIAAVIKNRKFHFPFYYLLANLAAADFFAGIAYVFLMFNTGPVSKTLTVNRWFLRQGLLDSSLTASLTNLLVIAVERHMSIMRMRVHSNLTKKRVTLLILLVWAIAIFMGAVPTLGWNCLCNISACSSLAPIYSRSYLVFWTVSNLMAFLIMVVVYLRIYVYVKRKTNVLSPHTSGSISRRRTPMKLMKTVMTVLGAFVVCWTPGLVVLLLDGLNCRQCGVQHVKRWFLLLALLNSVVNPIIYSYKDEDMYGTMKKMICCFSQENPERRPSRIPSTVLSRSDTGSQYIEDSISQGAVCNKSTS
Method: (§2) Synthesized compounds were tested for induction and inhibition of LPA-induced calcium transients in rat hepatoma (RH7777) cell lines that stably express individual LPA1, LPA2, and LPA3 receptors as described in the literature using a FlexStation II automated fluorimeter (Molecular Devices, Sunnyvale, Calif.).

PPARγ = target: T2, PPARγ (Homo sapiens, UniProt P37231); assay: PPARγ activation, PPRE-Acox-Rluc reporter gene assay in CV1 cells; type: cell-based; settings: Table 3
T2 construct: expressed in transfected cells; host or cells: CV1 cells (African green monkey kidney)
T2 sequence (P37231 1-505): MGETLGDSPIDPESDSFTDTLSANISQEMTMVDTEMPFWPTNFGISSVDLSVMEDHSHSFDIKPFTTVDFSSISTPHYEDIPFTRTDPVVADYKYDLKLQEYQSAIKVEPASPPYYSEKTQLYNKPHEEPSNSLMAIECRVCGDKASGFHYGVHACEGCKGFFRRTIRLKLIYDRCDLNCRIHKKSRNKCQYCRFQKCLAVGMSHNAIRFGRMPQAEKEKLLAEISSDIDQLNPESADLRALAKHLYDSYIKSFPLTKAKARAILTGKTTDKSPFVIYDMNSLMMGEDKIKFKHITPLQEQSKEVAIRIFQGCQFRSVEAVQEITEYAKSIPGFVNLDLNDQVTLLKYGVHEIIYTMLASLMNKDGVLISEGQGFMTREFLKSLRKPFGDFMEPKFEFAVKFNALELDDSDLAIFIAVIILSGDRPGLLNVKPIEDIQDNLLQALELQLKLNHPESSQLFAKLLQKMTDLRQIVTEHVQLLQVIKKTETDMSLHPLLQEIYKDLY
Method: (§1) The biological effects of all synthesized compounds were testing using three high-throughput assays. First, intracellular calcium transients in rat hepatoma (RH777, an LPA receptor null cell) cell lines individually expressing either LPA1, LPA2, and LPA3 receptors were analyzed to evaluate compounds as agonists or antagonists. […] The PPRE-Acox-Rluc construct contains a renilla luciferase coding region, an acyl-CoA oxidase coding region, and a PPAR response element coding region. Third, inhibition of the lysophospholipase D autotoxin was determined using a previously described procedure.
PPARγ is a lipid-activated transcription factor that belongs to the nuclear hormone superfamily. The inventors examined the activity of all synthesized Darmstoff analogs as PPARγ activators in vitro in CV1 cells using a PPRE-Acox-Rluc reporter gene assay. Rosiglitazone, a known PPARγ agonist, was used as a positive control for comparison.
RH7777 cells, which lack LPA GPCR, were stably transfected with individual LPA1, LPA2 and LPA3 receptors and used for the in vitro screening.
Unlike the enantiospecific responses compounds at LPA GPCR by APA analogs, there was no stereoselectivity observed in PPARγ activation by these analogs.

LPA1 [2] = target: T3, LPA1 (Homo sapiens, UniProt Q92633); assay: Ca2+ transients in RH7777 cells expressing LPA1 (agonist / inhibition of LPA response); settings: for EC50: read-out: LPA1 EC50
Method: as §2

LPA2 = LPA2 (Homo sapiens, UniProt Q9HBW0); assay: Ca2+ transients in RH7777 cells expressing LPA2 (agonist / inhibition of LPA response)
Method: as §2

[3] = target: lysophospholipase D (autotaxin, ATX) (Homo sapiens, UniProt Q13822); assay: Inhibition of lysophospholipase D autotaxin; type: biochemical; settings: Table 3
Method: as §1
LPA is liberated as the product of lysophosphatidylcholine hyrolysis by the lysophospholipase D, autotaxin (ATX). The inventors screened Darmstoff analogs for ATX inhibition. As indicated by the data, all tested analogs are capable of ATX inhibition independently of their ligand properties at LPA GPCR and PPARγ.

LPA3 [4] = target: T1, LPA3; parameters: expressed in transfected cells; host or cells: RH7777 rat hepatoma cells; settings: cited from earlier work
LPA1 [5] = target: T3, LPA1; parameters: expressed in transfected cells; host or cells: RH7777 rat hepatoma cells; settings: cited from earlier work
PC3 cells = assay: Calcium mobilization response in PC3 cells; type: cell-based; settings: Homo sapiens, read-out: PC3 cells IC50
[6] = Table 3, maximal efficacy of drug/maximal efficacy of LPA 18:1

T3 sequence (Q92633 whole entry, species assumed): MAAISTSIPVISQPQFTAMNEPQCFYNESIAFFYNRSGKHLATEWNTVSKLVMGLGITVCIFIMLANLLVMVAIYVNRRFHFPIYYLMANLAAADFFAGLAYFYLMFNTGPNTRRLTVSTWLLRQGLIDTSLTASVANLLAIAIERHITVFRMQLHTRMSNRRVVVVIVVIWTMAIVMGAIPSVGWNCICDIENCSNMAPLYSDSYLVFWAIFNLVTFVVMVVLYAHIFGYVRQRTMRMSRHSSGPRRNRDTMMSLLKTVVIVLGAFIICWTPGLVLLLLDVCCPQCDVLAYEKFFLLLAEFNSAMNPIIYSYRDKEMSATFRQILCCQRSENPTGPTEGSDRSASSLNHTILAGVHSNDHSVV
LPA2, sequence (Q9HBW0 whole entry, species assumed): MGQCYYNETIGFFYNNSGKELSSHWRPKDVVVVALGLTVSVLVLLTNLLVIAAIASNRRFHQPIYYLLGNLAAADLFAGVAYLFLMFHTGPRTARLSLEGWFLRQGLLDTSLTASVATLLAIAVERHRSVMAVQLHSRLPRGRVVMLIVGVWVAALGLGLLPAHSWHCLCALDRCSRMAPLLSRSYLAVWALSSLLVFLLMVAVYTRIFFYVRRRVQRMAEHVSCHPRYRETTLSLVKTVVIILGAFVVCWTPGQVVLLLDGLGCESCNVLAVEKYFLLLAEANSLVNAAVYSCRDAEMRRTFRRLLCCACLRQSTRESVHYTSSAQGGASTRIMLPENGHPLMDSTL

CCCCCCCCC=CCCCCCCCC1OCC(COP([O-])(O)=S)O1.[K+] (stereo not shown) [Analog 38]
LPA3 agonist/antagonist activity in words (LPA3 [1]): full agonists | LPA3 (Emax) (LPA3 [1]; [6]): 102% | EC50 (LPA3 [1]; Table 3): 204 nM | IC50 (LPA3 [1]; Table 3): > 30000 nM | PPARγ (PPARγ): Agonist | LPA1 agonist/antagonist activity in words (LPA1 [2]): pan-agonists | LPA1 (Emax) (LPA1 [2]; [6]): 68% | EC50 (LPA1 [2]; Table 3): 2260 nM | IC50 (LPA1 [2]; read-out: LPA1 IC50, Table 3): > 30000 nM | LPA2 agonist/antagonist activity in words (LPA2): pan-agonists | LPA2 (Emax) (LPA2; [6]): 72% | EC50 (LPA2; read-out: LPA2 EC50, Table 3): 1540 nM | IC50 (LPA2; read-out: LPA2 IC50, Table 3): > 30000 nM | ATX (% inhib.) [3]: 64% | IC50 [3]: 363 nM

dioctanoyl glycerol pyrophosphate [DGPP 8:0]
LPA3 activity in words, previously reported (LPA3 [4]): antagonists | LPA1 activity in words, previously reported (LPA1 [5]): antagonists

CCCCCCCCCCCCC1OCC(COP(=O)(O)O)O1 (stereo not shown) [Analog 12]
Ki (LPA3 [1]): 681 nM | LPA3 agonist/antagonist activity in words (LPA3 [1]): pantagonist | EC50 (LPA3 [1]; Table 3): > 30000 nM | IC50 (LPA3 [1]; 200 nM LPA): 2870 nM | IC50 (LPA3 [1]; Table 3): 2870 nM | PPARγ (PPARγ): Agonist | Ki (LPA1 [2]): 652 nM | LPA1 agonist/antagonist activity in words (LPA1 [2]): pantagonist | IC50 (LPA1 [2]; LPA1 IC50, 200 nM LPA): 1110 nM | IC50 (LPA1 [2]; LPA1 IC50, 300 nM LPA): 2150 nM | IC50 (LPA1 [2]; LPA1 IC50, Table 3): 1110 nM | IC50 (LPA1 [2]; RH-LPA1 cells IC50, inhibition of 200 nM LPA response): 1110 nM | IC50 (LPA1 [2]; RH-LPA1 cells IC50, inhibition of 300 nM LPA response): 2150 nM | EC50 (LPA1 [2]; Table 3): > 30000 nM | LPA2 agonist/antagonist activity in words (LPA2): pantagonist | EC50 (LPA2; LPA2 EC50, *transient): 1180 nM | EC50 (LPA2; LPA2 EC50, Table 3): > 30000 nM | IC50 (LPA2; RH-LPA2 cells IC50, inhibition of 200 nM LPA response): 397 nM | IC50 (LPA2; RH-LPA2 cells IC50, inhibition of 300 nM LPA response): 657 nM | IC50 (PC3 cells; PC-3, inhibition of 100 nM LPA response): 1860 nM | IC50 (PC3 cells; PC-3, inhibition of 300 nM LPA response): 2110 nM | ATX (% inhib.) [3]: 26% | IC50 [3]: 232 nM
